{"source": "patent US20090181904A1", "about": "“METHOD FOR REGULATING NUTRIENT ABSORPTION WITH GINSENOSIDES” (priority 2005, published 2009)", "key": {"Caco2 cell monolayer": {"tested_on": "Caco2 cell monolayer", "assay": "Glucose absorption assay (transport across Caco2 monolayer in transwell, 14C-glucose)", "format": "cell-based, human", "settings": "for Transport rate (glucose): 2 days pretreatment, 25 mM glucose", "experimental": "For glucose absorption assay, 0.3 mL (10^5 cell/ml) of Caco2 cells were seeded into the apical chamber of each transwell and the basolateral chamber was added with 1 ml of culture medium (as indicated above). Costar transwell inserts (No. 3414, Corning Incorporated, NY, USA) separate each well in 24-well plates into an apical chamber (defined as a chamber above the insert) and a basolateral chamber (defined as a chamber below the insert). The culture medium in each transwell was changed every 2 days in both of the apical and basolateral chambers. To ensure the integrity of tight junction of Caco2 monolayer membrane formed in the transwell, a Trans-Epithelial Electrical Resistance (TEER) assay was conducted using Millicell®-ERS (Millipore EVOM-6; World Precision Instrument, Sarasota, Fla., USA) to measure the TEER between apical and basolateral chambers of the transwell. As the measured TEER reached 300 to 450 Ωcm^2 with the presence of differentiated brush border on the […] side of the cell on the 14th to 21st day of the culture, the Caco2 monolayer was ready for the glucose absorption test. The TEER values were taken before, during, and after each experiment to justify consistency of the data collected.\nGlucose absorption was initiated by replacing the culture medium in the basolateral chamber with fresh glucose absorption buffer and the culture medium in the apical chamber with 0.2 mL of the glucose absorption buffer containing 2 μCi/ml of radioactive D-[^14C]-glucose (60 Ci/mmol, American Radiolabeled Chemicals, ARC, St. Louis, Mo., USA) and unlabeled cold glucose to give glucose at a final concentration of 25 mM. A series of five 10-μL samples were taken from the basolateral chamber at every 5 or 10 minute intervals. In order to maintain the constant buffer volume, same amount of sample buffer were added back to the basolateral chamber after withdrawn of each sample. The samples were transferred to the filter-bottomed UniFilter plates (Perkin-Elmer, Wellesley, Mass., USA) and dried in a vacuum oven at 37° C. The bottom of the UniFilter plate was sealed and 25 μL of the counting solution were added into each well. Adhesive plate sealers were used in place of the lids and radioactivity of each sample was counted using the microplate liquid scintillation counter (TopCount, Packard NXT, Packard BioScience Company, Meriden, Conn., USA). The effect of test compounds on glucose absorption was expressed as the nmoles of glucose accumulated in the basolateral chamber with respect to time in minutes (nmol/min). The glucose absorption rate was obtained by calculating the slope of the straight line from the time zero to the end point of the graphic data of each figure."}, "Caco-2 cell monolayer": {"tested_on": "Caco-2 cell monolayer", "assay": "Tryptophan absorption assay (transport across Caco-2 monolayer)", "format": "cell-based, human", "experimental": "In measuring transport of arginine across the Caco-2 cell monolayer, both sides of the transwells were washed with arginine incubation buffer consisting of: 137 mM NaCl, 10 mM Hepes, 0.3 mM NaH2PO4, 0.3 mM K2HPO4, 5.4 mM KCl, 2.8 mM CaCl2, 1 mM MgSO4, 10 mM glucose, adjusted to pH 7.4. Then, the cell layer was pre-incubated in the incubation buffer at 37° C. for 1 h. The volumes of incubation buffer were 0.2 mL and 0.9 mL in the apical and basolateral chambers, respectively. The cells were replaced with fresh incubation medium in both chambers prior to the transport experiment. The transport experiment was initiated by replacing the incubation solution on the apical side with solution containing 10 mM of L-arginine in which 0.125 μCi/mL of L-[^3H]-arginine was included. At designated time intervals, 10 μL-solution samples were removed from the basolateral side and radioactivity of each sample was counted using a microplate liquid scintillation counter (TopCount, Packard NXT). During the experiment, when a 10 μL-solution sample was removed from the basolateral side every time, 10 μL buffer was supplemented to keep the volume constant. The uptake of [^3H]-mannitol was used to correct for nonspecific transport of molecules across the monolayer membrane. Results were expressed as the nanomoles of arginine transport across the Caco-2 cell monolayers with respect to time in minutes (nmol/min).\nThe experimental procedures similar to those in Example 2 were used for measuring the uptake of tryptophan molecules across the Caco-2 membrane, except using a tryptophan incubation buffer consisting of 137 mM choline chloride, 10 mM Hepes, 0.6 mM KH2PO4, 5.4 mM KCl, 2.8 mM CaCl2, 1 mM MgSO4, and 10 mM glucose, and having its pH adjusted to 7.4. Results were expressed as the nanomoles of tryptophan transport across the Caco-2 cell monolayers with respect to time in minutes (nmol/min)."}}}
{"smiles": "CC(C)=CCC[C@](C)(O[C@@H]1O[C@H](CO)[C@@H](O)[C@H](O)[C@H]1O)[C@H]1CC[C@]2(C)[C@@H]1[C@H](O)C[C@@H]1[C@@]3(C)CC[C@H](O)C(C)(C)[C@@H]3[C@@H](O[C@@H]3O[C@H](CO)[C@@H](O)[C@H](O)[C@H]3O)C[C@]12C", "note": "[Rg1, ginsenoside Rg1]", "values": [{"measurement": "effect on glucose absorption (in words)", "setting": "Caco2 cell monolayer", "result": "inhibitory effect"}, {"measurement": "Percentage (glucose transport, control = 100)", "setting": "Caco2 cell monolayer; compound 0.01 μM", "result": 51.88, "unit": "%"}, {"measurement": "glucose transportation (in words, FIG. 2)", "setting": "Caco2 cell monolayer; compound 0.01 μM to 1 μM", "result": "clearly inhibited"}, {"measurement": "Transport rate (glucose)", "setting": "Caco2 cell monolayer; compound 0.01 μM", "result": "1.1317 ± 0.1299", "unit": "nmol/min"}, {"measurement": "Percentage (glucose transport, control = 100)", "setting": "Caco2 cell monolayer; compound 0.1 μM", "result": 58.51, "unit": "%"}, {"measurement": "Transport rate (glucose)", "setting": "Caco2 cell monolayer; compound 0.1 μM", "result": "1.2763 ± 0.1907", "unit": "nmol/min"}, {"measurement": "Percentage (glucose transport, control = 100)", "setting": "Caco2 cell monolayer; compound 1 μM", "result": 96.68, "unit": "%"}, {"measurement": "Transport rate (glucose)", "setting": "Caco2 cell monolayer; compound 1 μM", "result": "2.1089 ± 0.2097", "unit": "nmol/min"}, {"measurement": "* (arrow: regulatory effect on tryptophan transport)", "setting": "Caco-2 cell monolayer; compound 0.001 μM", "result": "↑"}, {"measurement": "Percentage (tryptophan transport, control = 100)", "setting": "Caco-2 cell monolayer; compound 0.001 μM", "result": 130.17, "unit": "%"}, {"measurement": "Transport rate (tryptophan)", "setting": "Caco-2 cell monolayer; compound 0.001 μM", "result": "16.180 ± 2.8700", "unit": "nmol/min"}, {"measurement": "tryptophan transport rate (in words)", "setting": "Caco-2 cell monolayer; compound 0.001 μM to 0.1 μM", "result": "increased"}, {"measurement": "* (arrow: regulatory effect on tryptophan transport)", "setting": "Caco-2 cell monolayer; compound 0.01 μM", "result": "↑"}, {"measurement": "Percentage (tryptophan transport, control = 100)", "setting": "Caco-2 cell monolayer; compound 0.01 μM", "result": 133.47, "unit": "%"}, {"measurement": "Transport rate (tryptophan)", "setting": "Caco-2 cell monolayer; compound 0.01 μM", "result": "16.590 ± 1.4190", "unit": "nmol/min"}, {"measurement": "* (arrow: regulatory effect on tryptophan transport)", "setting": "Caco-2 cell monolayer; compound 0.1 μM", "result": "↑"}, {"measurement": "Percentage (tryptophan transport, control = 100)", "setting": "Caco-2 cell monolayer; compound 0.1 μM", "result": 142.48, "unit": "%"}, {"measurement": "Transport rate (tryptophan)", "setting": "Caco-2 cell monolayer; compound 0.1 μM", "result": "17.710 ± 0.5948", "unit": "nmol/min"}]}
